From patent US9174953B2, “Bicyclic thiazoles as allosteric modulators of mGluR5 receptors” (Janssen Pharmaceutica NV, priority 2009, dated 2015)

Legend:
[1] = target: T1, human mGluR5 receptor (Homo sapiens, UniProt P41594); assay: intracellular Ca2+ mobilization assay, potentiation of glutamate EC20 response (FDSS); format: cell-based; conditions: for Emax: HEK293, maximum % effect in concentration-response curve, relative to glutamate ECMax-treated wells, HEK-293 human mGluR5; for EC50: human mGluR5 stably expressed in HEK-293 cells, Fluo-4 AM, increase in glutamate EC20 (~0.2 μM) response
T1 construct: expressed in transfected cells
Source text: The compounds provided in the present invention are positive allosteric modulators of mGluR5. These compounds appear to potentiate glutamate responses by binding to an allosteric site other than the glutamate binding site. The response of mGluR5 to a concentration of glutamate is increased when compounds of Formula (I) are present. Compounds of Formula (I) are expected to have their effect substantially at mGluR5 by virtue of their ability to enhance the function of the receptor. The behaviour of positive allosteric modulators tested at mGluR5 using the intracellular Ca^2+ mobilization binding assay method described below and which is suitable for the identification of such compounds.
In brief, the human mGluR5 receptor was stably expressed in HEK-293 cells and grown at a density of 40,000 cells/well in PDL-coated 384-well plates. Cells were preloaded with the calcium-sensing dye Fluo-4 AM and various concentrations of test compound were added in the absence of exogenous glutamate to test for direct agonist activity. Shortly (2.5 min) thereafter, an EC20 equivalent of glutamate (˜0.2 μM) was added. The fluorescence signal was monitored using a Hamamatsu Functional Drug Screening System (FDSS) fluorescence plate reader following the addition of compound alone (direct agonist response) and then the further addition of an EC20 of glutamate (positive allosteric modulation response). The pEC50 was defined as the negative log of the test compound concentration which produced an increase in the glutamate EC20-mediated response that was 50% of maximum. Individual amplitudes were expressed as % effect by multiplying each amplitude by 100 and then dividing the product by the mean of the amplitudes derived from the glutamate ECMax-treated wells. Emax values reported in this application are defined as the maximum % effect obtained in a concentration-response curve.

T1 sequence (P41594 21-1212): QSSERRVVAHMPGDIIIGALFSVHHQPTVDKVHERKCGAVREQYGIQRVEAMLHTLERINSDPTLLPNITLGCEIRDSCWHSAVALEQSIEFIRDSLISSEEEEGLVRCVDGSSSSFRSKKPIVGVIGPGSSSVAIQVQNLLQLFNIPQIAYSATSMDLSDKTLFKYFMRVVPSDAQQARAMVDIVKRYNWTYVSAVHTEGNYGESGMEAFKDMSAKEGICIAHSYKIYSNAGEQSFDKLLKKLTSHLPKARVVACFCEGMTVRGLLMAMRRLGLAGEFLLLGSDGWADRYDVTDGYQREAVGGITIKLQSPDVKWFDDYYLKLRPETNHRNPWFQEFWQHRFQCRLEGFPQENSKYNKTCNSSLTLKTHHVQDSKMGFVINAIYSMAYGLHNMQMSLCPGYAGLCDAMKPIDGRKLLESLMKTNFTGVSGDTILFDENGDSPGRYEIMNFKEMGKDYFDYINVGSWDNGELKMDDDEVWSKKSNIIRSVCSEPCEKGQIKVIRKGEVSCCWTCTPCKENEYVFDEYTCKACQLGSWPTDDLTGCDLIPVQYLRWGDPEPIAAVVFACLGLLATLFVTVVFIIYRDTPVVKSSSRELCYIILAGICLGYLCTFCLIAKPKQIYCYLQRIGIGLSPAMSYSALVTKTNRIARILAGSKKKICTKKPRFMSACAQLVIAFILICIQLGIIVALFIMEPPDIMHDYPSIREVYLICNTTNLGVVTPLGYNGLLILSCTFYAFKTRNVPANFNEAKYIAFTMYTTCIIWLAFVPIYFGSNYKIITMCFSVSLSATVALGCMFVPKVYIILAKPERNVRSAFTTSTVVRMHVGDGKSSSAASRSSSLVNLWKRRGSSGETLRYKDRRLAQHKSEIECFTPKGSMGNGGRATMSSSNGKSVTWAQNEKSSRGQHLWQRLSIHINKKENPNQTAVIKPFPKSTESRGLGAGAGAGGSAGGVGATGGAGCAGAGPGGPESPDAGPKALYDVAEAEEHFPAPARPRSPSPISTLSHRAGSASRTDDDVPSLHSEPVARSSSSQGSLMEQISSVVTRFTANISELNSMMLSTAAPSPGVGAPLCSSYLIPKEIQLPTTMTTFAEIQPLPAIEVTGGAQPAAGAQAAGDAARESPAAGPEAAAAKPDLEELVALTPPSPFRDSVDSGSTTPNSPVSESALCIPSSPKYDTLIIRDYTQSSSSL

Compound | Emax [1] | EC50 [1] | melting point
O=C1CCCc2nc(C#Cc3ccccc3)sc21 [Compound 1, 5,6-dihydro-2-(phenylethynyl)-7(4H)-benzothiazolone] | 100% | 51.3 nM | 117.1 to 119.9 °C
CN1CCc2nc(C#Cc3ccccc3)sc2C1=O [Compound 4, 6,7-dihydro-5-methyl-2-(phenylethynyl)-thiazolo[5,4-c]pyridin-4(5H)-one] | 79% | 69.2 nM | 146.1 to 147.2 °C
CN1CCOc2cc(-c3nc4c(s3)C(=O)CCC4)ccc21 [Compound 9, 2-(4-methyl-3,4-dihydro-2H-1,4-benzoxazin-7-yl)-5,6-dihydro-1,3-benzothiazol-7(4H)-one] | 77% | 6310 nM | 218.1 to 220.8 °C
O=C1CCCc2nc(C#Cc3cccnc3)sc21 [Compound 10, 5,6-dihydro-2-(3-pyridinylethynyl)-7(4H)-benzothiazolone] | 92% | 1510 nM | 109.5 to 112 °C
O=C1c2sc(C#Cc3ccccc3)nc2CCN1Cc1ccccc1 [Compound 12, 6,7-dihydro-2-(phenylethynyl)-5-(phenylmethyl)-thiazolo[5,4-c]pyridin-4(5H)-one] | 90% | 468 nM | 141.5 to 152.5 °C
O=C1c2sc(OCc3ccncc3)nc2CCN1c1ccc(F)cc1 [Compound 21] | – | – | 169.1 to 170.9 °C
O=C1c2sc(OCc3cccnc3)nc2CCN1c1ccc(F)cc1F [Compound 23] | – | – | 106 to 110 °C
O=C1c2sc(OCc3ccccn3)nc2CCN1c1ccc(F)cc1F [Compound 24] | – | – | 98.1 to 100.1 °C

The remaining lines, values ahead:

Emax [1] | EC50 [1] | melting point | Compound
83% | 4270 nM | 139.2 to 141.9 °C | O=C1CCCc2nc(C#Cc3cncc(F)c3)sc21 [Compound 2, 2-[(5-fluoro-3-pyridinyl)ethynyl]-5,6-dihydro-7(4H)-benzothiazolone]
78% | 219 nM | 232.1 to 235.1 °C | O=C1NCCc2nc(C#Cc3ccccc3)sc21 [Compound 3, 6,7-dihydro-2-(phenylethynyl)-thiazolo[5,4-c]pyridin-4(5H)-one]
51% | 18600 nM | – | O=C1CCCc2nc(CCc3ccccc3)sc21 [Compound 6, 5,6-dihydro-2-(2-phenylethyl)-7(4H)-benzothiazolone]
11% | 5010 nM | 260.3 to 264 °C | O=C1NCCCc2nc(-c3ccc(N4CCCCC4)nc3)sc21 [Compound 8]
64% | 275 nM | 144.5 to 148.2 °C | COCCN1CCc2nc(C#Cc3ccccc3)sc2C1=O [Compound 11, 6,7-dihydro-5-(2-methoxyethyl)-2-(phenylethynyl)-thiazolo[5,4-c]pyridin-4 (5H)-one]
– | – | 221.3 °C | O=C1c2sc(NCc3ccccc3)nc2CCN1c1ccc(F)cc1 [Compound 22]
